# Experimental data from patent US12570923B2, “Tuning sulfonation and controlling oleo-furan surfactant compositions” (SIRONIX RENEWABLES, INC., priority 2021, dated 2026).
# Columns and labels:
# Format in all cases: physicochemical
# [1] = Surface tension at critical micelle concentration; details: at CMC
# Procedure: (§1) Certain surfactant properties and performance metrics of synthesized surfactants structures according to General Structure 1 (GS1), including several exemplary surfactant blends prepared according to the methods disclosed previously herein, were measured. […] For example, the α-OMFS-12-1/O surfactant with a sulfonate on the surfactant's alkyl chain provides faster wetting kinetics, as compared to the ring sulfonate 4-OMFS-12-1/O which has slower fabric wetting kinetics yet generates more foam in high shear conditions, or the disulfonate surfactant sulfonated on both the ring and alkyl chain (4,α-OMFS-12-1/O) which has slower fabric wetting and generates less foam than either of the aforementioned monosulfonates surfactants, yet has a higher solubility that can be helpful in building product formulations. Accordingly, these differing performance metrics can be leveraged by selecting the particular disclosed surfactant structure corresponding to the performance metrics useful in a specific application of the surfactant structure.
# [2] = Solubility in deionized water; details: deionized water at 20° C.
# Procedure: Certain surfactant properties and performance metrics of synthesized surfactants structures according to General Structure 1 (GS1), including several exemplary surfactant blends prepared according to the methods disclosed previously herein, were measured.
# [3] = Krafft point (temperature below which the surfactant forms a solid precipitate)
# Procedure: as §1
# [4] = Critical micelle concentration
# Procedure: as §1
smiles,measurement,setting,value
"CCCCCCCCCCC(C(=O)c1cc(S(=O)(=O)O)c(C)o1)S(=O)(=O)O.N.N (stereo not drawn) [NH4^+4,α-OMFS-12-1/0]",Surface Tension at critical micelle concentration,[1],39 mN/m
same,Solubility,[2],500 mg/mL
same,Krafft Point,[3],<0 °C
same,CMC (critical micelle concentration),[4],3545 ppm
"CCCCCCCCCCC(C(=O)c1cc(S(=O)(=O)[O-])c(C)o1)S(=O)(=O)[O-].[Na+].[Na+] (stereo not drawn) [Na^+ 4,α-OMFS-12-1/0]",Solubility,[2],900 mg/mL
same,Krafft Point,[3],<0 °C
"CCCCCCCCCCCCC(C(=O)c1cc(S(=O)(=O)[O-])c(C)o1)S(=O)(=O)[O-].[Na+].[Na+] (stereo not drawn) [Na^+ 4,α-OMFS-14-1/0]",Solubility,[2],600 mg/mL
same,Krafft Point,[3],<0 °C
"CCCCCCCCCCCCCCCCC(C(=O)c1cc(S(=O)(=O)[O-])c(C)o1)S(=O)(=O)[O-].[Na+].[Na+] (stereo not drawn) [Na^+ 4,α-OMFS-18-1/0]",Krafft Point,[3],<0 °C
CCCCCCCCCCCC(=O)c1cc(S(=O)(=O)[O-])c(C)o1.[Na+] [Na^+ 4-OMFS-12-1/0],Surface Tension at critical micelle concentration,[1],42 mN/m
same,Solubility,[2],800 mg/mL
same,Krafft Point,[3],<0 °C
same,CMC (critical micelle concentration),[4],1480 ppm
CCCCCCCCCCC(C(=O)c1ccc(C)o1)S(=O)(=O)[O-].[Na+] (stereo not drawn) [Na^+ α-OMFS-12-1/0],Solubility,[2],800 mg/mL
same,Krafft Point,[3],<0 °C
